Consider one compound from PMC12069692, “Pharmacological inhibition of PLK1/PRC1 triggers mitotic catastrophe and sensitizes lung cancers to chemotherapy” (Cell Death & Disease, 2025).

This assay has as its target T1, PLK1 (Homo sapiens, UniProt P53350).
T1 construct: Recombinant PLK1 protein (Active Motif 81429) in SPR; Flag-PBD in Co-IP-MS
Nature of the assay: SPR (Biacore T200, immobilized PLK1); supported by T1rho NMR, CETSA, Co-IP-MS, in vitro kinase assay (IC50 […]). In kind it is binding.

T1 sequence (P53350 2-603): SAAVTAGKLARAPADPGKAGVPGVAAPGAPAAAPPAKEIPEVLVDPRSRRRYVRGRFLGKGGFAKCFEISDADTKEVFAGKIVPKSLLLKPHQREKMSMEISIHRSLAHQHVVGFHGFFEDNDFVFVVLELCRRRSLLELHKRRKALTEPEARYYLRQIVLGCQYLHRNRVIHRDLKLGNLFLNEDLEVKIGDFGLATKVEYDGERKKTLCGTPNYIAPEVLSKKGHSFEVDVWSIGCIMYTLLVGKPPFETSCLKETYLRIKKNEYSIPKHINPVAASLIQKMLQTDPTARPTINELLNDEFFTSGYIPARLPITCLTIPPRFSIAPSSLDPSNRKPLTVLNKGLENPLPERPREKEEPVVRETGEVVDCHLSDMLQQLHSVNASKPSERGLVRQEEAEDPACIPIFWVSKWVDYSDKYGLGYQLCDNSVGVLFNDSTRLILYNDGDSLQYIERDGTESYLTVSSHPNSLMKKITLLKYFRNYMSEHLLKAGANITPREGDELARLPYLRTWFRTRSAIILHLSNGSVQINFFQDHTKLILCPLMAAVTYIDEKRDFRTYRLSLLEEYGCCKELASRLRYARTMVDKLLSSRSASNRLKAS

Consider `CN(C)CCN1C(=O)c2cccc3c(S(=O)(=O)NCc4ccc(C(F)(F)F)cc4)ccc(c23)C1=O` [B4], for which the Kd was about 5.6 µM.
